Results reported in patent publication US20130102463A1, “Herbicidal Compositions” (BASF SE, priority 2010, published 2013).
Several values for one entry are separate records, joined by “and”; a condition that tells them apart may be missing. Equal values may be shown once.

Assays:
[1] = system: fleabane (Erigeron canadiensis); test: Example 3: herbicidal action; whole plants sprayed with B, component A applied as local leaf treatment, high light; format: in vivo, Erigeron canadensis; conditions: ERICA
[2] = system: velvet leave (Abutilon theophrasti, ABUTH); test: Example 2: herbicidal action; whole plants sprayed with A and B in the spraying chamber, high light; format: in vivo
[3] = system: morningglory (Pharbitis purpurea, PHBPU); test: as above; format: in vivo
[4] = system: fleabane (Erigeron canadiensis, ERICA); test: Example 1: herbicidal action; whole plants sprayed with B, PPO inhibitor applied as local leaf treatment, high light; format: in vivo, Erigeron canadensis
[5] = system: fleabane (Erigeron canadiensis, ERICA); test: Example 2: herbicidal action; whole plants sprayed with A and B in the spraying chamber, high light; format: in vivo, Erigeron canadensis
[6] = system: moringglory (Pharbitis purpurea, PHBPU); test: Example 1: herbicidal action; whole plants sprayed with B, PPO inhibitor applied as local leaf treatment, high light; format: in vivo
[7] = walk-in chamber, 4 DAT, rate 0.125 g/ha (A alone)
[8] = walk-in chamber, 14 DAT, rate 0.125 g/ha (A alone)
[9] = walk-in chamber, 4 DAT, rate 20 g/ha (A alone)
[10] = walk-in chamber, 14 DAT, rate 20 g/ha (A alone)
[11] = 5 DAT, rate 1000 g/ha (B alone)
[12] = 11 DAT, rate 1000 g/ha (B alone)
[13] = 11 DAT, rate 500 g/ha (B alone)
[14] = 10 DAT, rate 1000 g/ha (B alone)
[15] = 42 DAT, rate 1000 g/ha (B alone)
[16] = 4 DAT, rate 2000 g/ha (B alone)
[17] = 10 DAT, rate 2000 g/ha (B alone)
[18] = growth chamber, 4 DAT, rate 0.250 g/ha (A alone)
[19] = growth chamber, 4 DAT, rate 0.500 g/ha (A alone)
[20] = growth chamber, 14 DAT, rate 0.250 g/ha (A alone)
[21] = growth chamber, 14 DAT, rate 0.500 g/ha (A alone)

SMILES: CCCCC(CC)COC(=O)c1ccc(Nc2nc(Nc3ccc(C(=O)OCC(CC)CCCC)cc3)nc(Nc3ccc(C(=O)OCC(CC)CCCC)cc3)n2)cc1 (centres unmarked) [B.1.11.1, 2,4,6-trinanilino-p-(carbo-2′-ethyl-hexyl-1′-oxy)-1,3,5-triazine]
- % damage ([1]; 2 DAT, rate 500 g/ha (B alone)): 0%
- % damage ([1]; 8 DAT, rate 500 g/ha (B alone)): 0%

SMILES: C#CCN1C(=O)COc2cc(F)c(-n3c(=O)n(C)c(=S)n(C)c3=O)cc21 [A.5.1, 3-[7-fluoro-3-oxo-4-(prop-2-ynyl)-3,4-dihydro-2H-benzo[1,4]oxazin-6-yl]-1,5-dimethyl-6-thioxo-[1,3,5]triazinan-2,4-dione]
- % damage ([2]; walk-in chamber, 4 DAT, rate 1 g/ha (A alone)): 94%
- % damage ([2]; walk-in chamber, 14 DAT, rate 1 g/ha (A alone)): 55%
- % damage [3, 7]: 92%
- % damage [3, 8]: 70%

SMILES: CCOc1cc(Oc2ccc(C(F)(F)F)cc2Cl)ccc1[N+](=O)[O-] [A.4.1, oxyfluorofen]
- % damage [2, 9]: 93%
- % damage [2, 10]: 80%
- % damage ([3]; walk-in chamber, 4 DAT, rate 5 g/ha (A alone)): 94%
- % damage [3, 9]: 99%
- % damage ([3]; walk-in chamber, 14 DAT, rate 5 g/ha (A alone)): 83%
- % damage [3, 10]: 95%

SMILES: CCCCC(CC)COC(=O)C=Cc1ccc(OC)cc1 (centres unmarked) [B.1.5.1, 2-ethylhexyl 4-methoxycinnamate]
- % damage ([1]; 2 DAT, rate 500 g/ha (B alone)): 0%
- % damage ([1]; 8 DAT, rate 500 g/ha (B alone)): 0%

SMILES: CCCOC(=O)c1cc(O)c(=O)c2c(O)c(O)ccc2c1 [B.1.19.1, 3,4,6-trihydroxy-5-oxo-5H-benzocycloheptene-8-carboxylic acid propyl ester]
- % damage ([1]; 2 DAT, rate 250 g/ha (B alone)): 0%
- % damage ([1]; 2 DAT, rate 500 g/ha (B alone)): 0%
- % damage ([1]; 8 DAT, rate 250 g/ha (B alone)): 0%
- % damage ([1]; 8 DAT, rate 500 g/ha (B alone)): 0%

SMILES: c1ccc(Nc2ccccc2)cc1 [B.3.19.1, diphenylamine]
- % damage [4, 11]: 0%
- % damage [4, 12]: 0%

SMILES: CCCCC(CC)COC(=O)C(C#N)=C(c1ccccc1)c1ccccc1 (centres unmarked) [B.1.2.2, 2-cyano-3,3-diphenylacrylic acid-2′-ethylhexyl ester]
- % damage ([4]; 7 DAT, rate 500 g/ha (B alone)): 10%
- % damage [4, 13]: 10%

SMILES: CCCOC(=O)c1cc(O)c(O)c(O)c1 [B.3.29.1, n-propylgallate]
- % damage [4, 11]: 0% and 5%
- % damage [4, 12]: 0% and 8%

SMILES: CCN(CC)c1ccc(C(=O)c2ccccc2C(=O)N2CCN(C(=O)c3ccccc3C(=O)c3ccc(N(CC)CC)cc3O)CC2)c(O)c1 [B.1.6.5]
- % damage ([1]; 2 DAT, rate 500 g/ha (B alone)): 0%
- % damage ([1]; 8 DAT, rate 500 g/ha (B alone)): 0%

SMILES: CCOC(=O)C(C#N)=C1C=C(NC(C)CC)CC(C)(C)C1 (centres unmarked) [B.1.17.1, 2-cyano-2-[5,5-dimethyl-3-[(1-methylpropyl)amino]-2-cyclohexen-1-ylidene]-acetic acid ethyl ester]
- % damage ([1]; 2 DAT, rate 500 g/ha (B alone)): 0%
- % damage ([1]; 2 DAT, rate 1000 g/ha (B alone)): 0%
- % damage ([1]; 8 DAT, rate 500 g/ha (B alone)): 0%
- % damage ([1]; 8 DAT, rate 1000 g/ha (B alone)): 0%

SMILES: CCOC(=O)C(Cl)Cc1cc(-n2nc(C)n(C(F)F)c2=O)c(F)cc1Cl (centres unmarked) [A.2.1, carfentrazone-ethyl]
- % damage ([5]; growth chamber, 4 DAT, rate 10 g/ha (A alone)): 57%
- % damage ([5]; growth chamber, 14 DAT, rate 10 g/ha (A alone)): 47%
- % damage ([3]; growth chamber, 4 DAT, rate 0.5 g/ha (A alone)): 94%
- % damage ([3]; growth chamber, 14 DAT, rate 0.5 g/ha (A alone)): 83%

SMILES: COc1ccc(C(=O)c2ccccc2)c(O)c1 [B.1.6.4, 2-hydroxy-4-methoxybenzophenone]
- % damage ([1]; 2 DAT, rate 500 g/ha (B alone)): 0%
- % damage ([1]; 8 DAT, rate 500 g/ha (B alone)): 0%
- % damage ([4]; 5 DAT, rate 500 g/ha (B alone)): 5%
- % damage [4, 14]: 0%
- % damage [4, 13]: 5%
- % damage [4, 15]: 13%
- % damage [6, 16]: 15%
- % damage [6, 17]: 10%

SMILES: CCCCCCOC(=O)c1ccccc1C(=O)c1ccc(N(CC)CC)cc1O [B.1.6.1, 2-(4-diethylamino-2-hydroxybenzoyl)-benzoic acid hexylester]
- % damage ([4]; 7 DAT, rate 500 g/ha (B alone)): 0%
- % damage [4, 13]: 0%

SMILES: C#CCN1C(=O)COc2cc(F)c(N3C(=O)C4=C(CCCC4)C3=O)cc21 [A.5.2, flumioxazin]
- % damage ([2]; growth chamber, 4 DAT, rate 2 g/ha (A alone)): 98%
- % damage ([2]; growth chamber, 14 DAT, rate 2 g/ha (A alone)): 98%

SMILES: CCCCN1C(=O)c2cc3nn(-c4cc(C(C)(C)CC(C)(C)C)cc(C(C)(C)c5ccccc5)c4O)nc3cc2C1=O [B.1.1.2]
- % damage ([1]; 2 DAT, rate 500 g/ha (B alone)): 0%
- % damage ([1]; 8 DAT, rate 500 g/ha (B alone)): 0%

SMILES: CC(C)N(C)S(=O)(=O)NC(=O)c1cc(-n2c(=O)cc(C(F)(F)F)n(C)c2=O)c(F)cc1Cl [A.1.1, saflufenacil]
- % damage [2, 18]: 67%
- % damage [2, 19]: 96%
- % damage [2, 20]: 35%
- % damage [2, 21]: 83%
- % damage ([5]; walk-in chamber, 1 DAT, rate 0.125 g/ha (A alone)): 38%
- % damage ([5]; walk-in chamber, 1 DAT, rate 0.250 g/ha (A alone)): 70%
- % damage ([5]; walk-in chamber, 1 DAT, rate 0.350 g/ha (A alone)): 65%
- % damage [5, 7]: 38%
- % damage ([5]; walk-in chamber, 4 DAT, rate 0.250 g/ha (A alone)): 83%
- % damage ([5]; walk-in chamber, 4 DAT, rate 0.350 g/ha (A alone)): 90%
- % damage [5, 8]: 18%
- % damage ([5]; walk-in chamber, 14 DAT, rate 0.250 g/ha (A alone)): 67%
- % damage ([5]; walk-in chamber, 14 DAT, rate 0.350 g/ha (A alone)): 75%
- % damage [3, 18]: 95%
- % damage [3, 19]: 98%
- % damage [3, 20]: 85%
- % damage [3, 21]: 93%
- % damage ([1]; 2 DAT, rate 60 g/ha (A alone)): 55%
- % damage ([1]; 8 DAT, rate 60 g/ha (A alone)): 34%
- % damage ([4]; 7 DAT, rate 60 g/ha (A alone)): 10%
- % damage ([4]; 10 DAT, rate 60 g/ha (A alone)): 56%
- % damage ([4]; 11 DAT, rate 60 g/ha (A alone)): 10% and 18% and 19%
- % damage ([4]; 42 DAT, rate 60 g/ha (A alone)): 45%
- % damage ([6]; 4 DAT, rate 60 g/ha (A alone)): 28%
- % damage ([6]; 10 DAT, rate 60 g/ha (A alone)): 35%

SMILES: O=C(c1ccccc1)c1ccc(O)cc1O [B.1.6.3, 2,4-dihydroxybenzo-phenone]
- % damage [4, 14]: 13%
- % damage [4, 15]: 0%
- % damage [6, 16]: 39%
- % damage [6, 17]: 20%

SMILES: CC(C)c1cccc(C(C)C)c1N1C(=O)c2cccc3c(Oc4ccc(C(C)(C)CC(C)(C)C)cc4)ccc(c23)C1=O [B.1.18.1, 2-[2,6-bis(1-methylethyl)phenyl]-6-[4-(1,1,3,3-tetramethylbutyl)phenoxy]-1H-benz[de]isoquinoline-1,3(2H)-dione]
- % damage ([1]; 2 DAT, rate 500 g/ha (B alone)): 0%
- % damage ([1]; 8 DAT, rate 500 g/ha (B alone)): 0%

SMILES: Cc1c(C)c2c(c(C)c1O)CC[C@@](C)(CCC[C@H](C)CCC[C@H](C)CCCC(C)C)O2 [B.3.4.1, α-tocopherol]
- % damage ([4]; 5 DAT, rate 7000 g/ha (B alone)): 0%
- % damage ([4]; 11 DAT, rate 7000 g/ha (B alone)): 0%

SMILES: CC1=CC(=O)CC(C)(C)[C@@]1(O)/C=C/C(C)=C\C(=O)O [B.3.28.1, abscisic acid]
- % damage [4, 11]: 1%
- % damage [4, 12]: 0%

SMILES: CCOC(=O)COc1ncccc1Oc1cc(-n2c(=O)cc(C(F)(F)F)n(C)c2=O)c(F)cc1Cl [A.1.2, ethyl[3-[2-chloro-4-fluoro-5-(1-methyl-6-trifluoromethyl-2,4-dioxo-1,2,3,4-tetrahydropyrimidin-3-yl)phenoxy]-2-pyridyloxy]acetate]
- % damage ([5]; walk-in chamber, 4 DAT, rate 10 g/ha (A alone)): 95%
- % damage ([5]; walk-in chamber, 14 DAT, rate 10 g/ha (A alone)): 80%
- % damage ([3]; walk-in chamber, 4 DAT, rate 0.5 g/ha (A alone)): 99%
- % damage ([3]; walk-in chamber, 14 DAT, rate 0.5 g/ha (A alone)): 96%

SMILES: COc1cc(O)c(C(=O)c2ccccc2)cc1S(=O)(=O)O [B.1.7.1, 2-hydroxy-4-methoxy-benzophenone-5-sulfonic acid]
- % damage ([1]; 2 DAT, rate 500 g/ha (B alone)): 0%
- % damage ([1]; 8 DAT, rate 500 g/ha (B alone)): 0%

SMILES: CC(C)(C)CC(C)(C)c1cc(Cc2cc(C(C)(C)CC(C)(C)C)cc(-n3nc4ccccc4n3)c2O)c(O)c(-n2nc3ccccc3n2)c1 [B.1.1.1, 2,2-methylenbis-6-(benzotriazol-2-yl)-4-tert-octylphenol]
- % damage ([1]; 2 DAT, rate 500 g/ha (B alone)): 0%
- % damage ([1]; 8 DAT, rate 500 g/ha (B alone)): 0%

SMILES: CNC(=O)c1ccc(Nc2nc(NC)nc(Nc3ccc(/C=C/c4ccc(Nc5nc(NC)nc(Nc6ccc(C(=O)NC)cc6)n5)cc4S(=O)(=O)[O-])c(S(=O)(=O)[O-])c3)n2)cc1.[Na+].[Na+] [B.1.16.1]
- % damage ([1]; 2 DAT, rate 500 g/ha (B alone)): 0%
- % damage ([1]; 8 DAT, rate 500 g/ha (B alone)): 0%

SMILES: Oc1ccc(C=Cc2cc(O)cc(O)c2)cc1 [B.3.27.1, resveratrol]
- % damage [4, 11]: 10%
- % damage [4, 12]: 0%
